We go through two molecules from US7365057B2, “Modified 2′ and 3′-nucleoside prodrugs for treating Flavivridae infections” (priority 2002, dated 2008).

Data set [1] relates to HCV. As to conditions: ribavirin alone; Davis, Gastroenterology 2000; cited from earlier work.
In data set [2] the test system is MT-4.
Data set [3] deals with Vero 76, African green monkey kidney cells.
Data set [4] relates to BHK.

`NC(=O)c1ncn([C@@H]2O[C@H](CO)[C@@H](O)[C@H]2O)n1` [Ribavirin, 1-β-D-ribofuranosyl-1-1,2,4-triazole-3-carboxamide]: in data set [1], the “effect on serum levels of HCV-RNA” value is given as “does not lower serum levels of HCV-RNA” and the “patients in whom serum amino transferase levels are reduced to normal” value is listed as 40%.
With “β-D-2′-C-methyl-7-methyl-6-phenyl-3,3a,5,8a-tetrahydro-1,3,4,5,7a-penta-aza-s-indacen-8-one [Compound F]”, the CC50 in data set [2], in data set [3] and in data set [4] was greater than 100 µM throughout.
